Reference: US20240360146A1, “BRUTON'S TYROSINE KINASE AND MUTANT DEGRADER, COMPOSITION AND APPLICATION THEREOF” (HANGZHOU HEALZEN THERAPEUTICS CO., LTD., priority 2021, published 2024)

Tests used:
OCI-LY10 cells = test: Inhibitory activity on OCI-LY10 cell proliferation (MTS); format: cell-based; conditions: Homo sapiens, 72 h
Summary of the method: (§1)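 Cells seeded at 10000/well, treated with compounds from 1000 nM (4-fold, 8 points) for 72 h (OCI-LY10) or 168 h (Mino) at 37° C. MTS added for 2 h, stopped with SDS, absorbance read at 490 and 650 nm; IC50 from dose-response fit.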

Mino cells = test: Inhibitory activity on Mino cell proliferation (MTS); format: cell-based; conditions: Homo sapiens, 168 h incubation
Summary of the method: as §1

[1] = Stability of compounds in human liver microsome; format: in vitro ADME; conditions: human liver microsomes, NADPH, 37° C., sampling 0-120 min; read-out: Human liver microsome T1/2
Experimental: Compound to be tested: the compound to be tested (1 mg) was dissolved in DMSO (10 mL) to formulate to 0.1 mg/mL.
Internal standard compound: the internal standard compound (1 mg) was dissolved in DMSO (10 mL), 10 μL was taken and diluted to 10 mL to formulate to 100 ng/mL.
NADPH solution: NADPH (2.08 mg) was dissolved in PBS (50 μL) buffer to formulate to 50 mM.
Under the condition of ice bath, 1 mg of human liver microparticles was add to PBS (1 mL) buffer, then NADPH (20 μL) was added, and incubated at 37° C. for 5 min. 10 μL of the compound to be tested was added, and then samples were taken at 0, 15, 30, 60 and 120 min respectively. 10 μL of the solution was taken with a pipette each time and added to 490 μL of the solution containing the internal standard compound. The resulting solution was vortexed and then placed on ice, and then sampling at another time point continues. All samples were centrifuged at 10,000 rpm for 10 min, and the supernatant was taken for LC/MS testing. The metabolism of the compound in liver microsomes was calculated based on the peak area.

BTK = target: T1, BTK (Homo sapiens, UniProt Q06187); test: BTK degradation activity test in Mino cells; format: cell-based; conditions: 16 h incubation, Western blot or Elisa
T1 construct: endogenous in cells; host or cells: Mino cells
Summary of the method: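 DC50 derived by curve fitting of BTK degradation rates versus untreated control across compound concentrations. Mino cells were exposed for 16 h; BTK levels in lysates, normalised via BCA protein, measured by Western blot or ELISA.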

T1 sequence (Q06187 whole entry): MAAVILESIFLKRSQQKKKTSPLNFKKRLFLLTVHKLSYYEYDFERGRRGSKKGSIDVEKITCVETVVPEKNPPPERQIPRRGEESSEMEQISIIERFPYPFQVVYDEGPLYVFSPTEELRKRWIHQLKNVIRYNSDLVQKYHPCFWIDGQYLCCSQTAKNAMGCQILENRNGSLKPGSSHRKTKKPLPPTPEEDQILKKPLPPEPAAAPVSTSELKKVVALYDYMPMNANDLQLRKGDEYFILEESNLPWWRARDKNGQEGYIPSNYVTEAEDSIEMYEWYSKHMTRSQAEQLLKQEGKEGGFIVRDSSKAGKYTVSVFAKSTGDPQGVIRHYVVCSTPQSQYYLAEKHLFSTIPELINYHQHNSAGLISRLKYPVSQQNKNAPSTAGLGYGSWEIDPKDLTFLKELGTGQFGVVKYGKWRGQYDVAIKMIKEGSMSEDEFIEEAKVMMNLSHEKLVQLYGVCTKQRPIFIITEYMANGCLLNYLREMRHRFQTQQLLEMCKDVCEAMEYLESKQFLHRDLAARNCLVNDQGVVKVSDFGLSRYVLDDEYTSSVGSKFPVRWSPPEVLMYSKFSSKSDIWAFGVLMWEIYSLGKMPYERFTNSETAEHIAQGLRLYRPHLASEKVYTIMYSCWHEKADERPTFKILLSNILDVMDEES

SMILES	IC50 (OCI-LY10 cells)	IC50 (Mino cells)	half-life at 0.97 µg/mL [1]	DC50 (BTK)
CN1CCN([C@@H]2CCCN(c3nnc(C(N)=O)c(Nc4ccc(N5CCN(CC6CCN(c7ccc(C(=O)N[C@H]8CCC(=O)NC8=O)c(F)c7)CC6)CC5)c(F)c4)n3)C2)C1=O [Compound 172, 5-((4-(4-((1-(4-(((S)-2,6-dioxopiperidin-3-yl)carbamoyl)-3-fluorophenyl)piperidin-4-yl)methyl)piperazin-1-yl)-3-fluorophenyl)amino)-3-((R)-3-(3-methyl-2-oxoimidazolidin-1-yl)piperidin-1-yl)-1,2,4-triazin-6-carboxamide]	2.39 nM	6.2 nM	> 30 min	< 1 nM
CN1CCN([C@@H]2CCCN(c3nnc(C(N)=O)c(Nc4ccc(N5CCN(CC6CCN(C(=O)c7ccc(F)c(N8CCC(=O)NC8=O)c7)C6)CC5)c(F)c4)n3)C2)C1=O (stereo partly drawn) [Compound 148, 5-((4-(4-((1-(3-(2,4-dioxotetrahydropyrimidin-1(2H)-yl)-4-fluorobenzoyl)pyrrolidin-3-yl)methyl)piperazin-1-yl)-3-fluorophenyl)amino)-3-((R)-3-(3-methyl-2-oxoimidazolin-1-yl)piperidin-1-yl)-1,2,4-triazin-6-carboxamide]	3.21 nM	7.79 nM	> 30 min	< 1 nM
NC(=O)c1nnc(N2CC3CC(N4C(=O)c5ccccc5C4=O)C2C3)nc1Nc1ccc(C2CCN(CC3CCN(c4ccc5c(c4)C(=O)N(C4CCC(=O)NC4=O)C5=O)CC3)CC2)cc1 (stereo not drawn) [Compound 143, 3-(6-(1,3-dioxoisoindolin-2-yl)-2-azabicyclo[2.2.1]heptan-2-yl)-5-((4-(1-((1-(2-(2,6-dioxopiperidin-3-yl)-1,3-dioxoisoindolin-5-yl)piperidin-4-yl)methyl)piperidin-4-yl)phenyl)amino)-1,2,4-triazin-6-carboxamide]	0.33 nM	3.08 nM	39.1 min	< 1 nM
CN1CCN([C@@H]2CCCN(c3nnc(C(N)=O)c(Nc4ccc(N5CCN(CC6CCN(c7ccc(N8CCC(=O)NC8=O)nc7)CC6)CC5)c(F)c4)n3)C2)C1=O [Compound 195, (R)-5-((4-(4-((1-(6-(2,4-dioxotetrahydropyrimidin-1(2H)-yl)pyridin-3-yl)piperidin-4-yl)methyl)piperazin-1-yl)-3-fluorophenyl)amino)-3-(3-(3-methyl-2-oxoimidazolidin-1-yl)piperidin-1-yl)-1,2,4-triazin-6-carboxamide]	1.79 nM	8.53 nM	> 30 min	< 1 nM
CN1CCN([C@@H]2CCCN(c3nnc(C(N)=O)c(Nc4ccc(C5CCN(CC6CCN(c7cc8c(cc7F)C(=O)N(C7CCC(=O)NC7=O)C8=O)C6)CC5)cc4)n3)C2)C1=O (stereo partly drawn) [Compound 126, 5-((4-(1-((1-(2-(2,6-dioxopiperidin-3-yl)-6-fluoro-1,3-dioxoisoindolin-5-yl)pyrrolidin-3-yl)methyl)piperidin-4-yl)phenyl)amino)-3-((R)-3-(3-methyl-2-oxoimidazolin-1-yl)piperidin-1-yl)-1,2,4-triazin-6-carboxamide]	< 0.06 nM	2.99 nM	55.6 min	< 1 nM
CN1CCN([C@@H]2CCCN(c3nnc(C(N)=O)c(Nc4ccc(C5CCN(CC6CCN(c7ccc8c(c7)C(=O)N(C7CCC(=O)NC7=O)C8=O)C6)CC5)c(F)c4)n3)C2)C1=O (stereo partly drawn) [Compound 128, 5-((4-(1-((1-(2-(2,6-dioxopiperidin-3-yl)-1,3-dioxoisoindolin-5-yl)pyrrolidin-3-yl)methyl)piperidin-4-yl)-3-fluorophenyl)amino)-3-((R)-3-(3-methyl-2-oxoimidazolin-1-yl)piperidin-1-yl)-1,2,4-triazin-6-carboxamide]	0.37 nM	1.93 nM	43.2 min	< 1 nM
